Data from patent US6365605B1, “Substituted hydrochromenopyrroles” (Les Laboratoires Servier, priority 1997, dated 2002).

Molecular target: T1, D3 receptors (expressed in CHO cells) (Homo sapiens, UniProt P35462)
T1 construct: expressed in transfected cells
Assay: In vitro measurement of the affinity to D2 and D3 receptors, [125I]-iodosulpiride radioligand, membrane preparations
Type: binding
Settings: difference of pKi, D3 vs D2 receptors expressed in CHO cells
Method: The affinity of the compounds of the invention to D2 and D3 receptors (expressed independently and in a stable manner in CHO cells) was determined with membrane preparations using [^125I]-iodosulpiride as radioligand (Sokoloff et al., quoted reference). The results are expressed as pKi.

T1 sequence (P35462 whole entry): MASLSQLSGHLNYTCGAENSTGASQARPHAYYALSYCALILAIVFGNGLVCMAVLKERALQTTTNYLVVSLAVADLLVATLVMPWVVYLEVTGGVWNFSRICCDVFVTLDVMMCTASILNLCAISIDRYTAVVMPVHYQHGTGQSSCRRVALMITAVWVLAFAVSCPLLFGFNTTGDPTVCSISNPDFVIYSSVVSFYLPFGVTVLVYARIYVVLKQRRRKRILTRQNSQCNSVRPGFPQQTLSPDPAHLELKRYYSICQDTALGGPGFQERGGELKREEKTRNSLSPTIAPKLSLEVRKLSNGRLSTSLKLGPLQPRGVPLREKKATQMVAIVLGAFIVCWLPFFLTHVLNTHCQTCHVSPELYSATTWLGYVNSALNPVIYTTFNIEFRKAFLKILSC

For `CC(=O)Nc1ccc(CCN2CC3COc4ccc(C#N)cc4C3C2)cc1.Cl` (stereo not shown) [Example 4, (3aα,9bβ)-2-[2-(4-Acetylaminophenyl)ethyl]-8-cyano-1,2,3,3a,4,9b-hexahydrochromeno[3,4-c]pyrrole hydrochloride], the “selectivity for D3 receptors compared with D2 receptors” value was over 1.5 log.
